Results as given in paper PMC7901646, “Pyrrolo[2′,3′:3,4]cyclohepta[1,2-d][1,2]oxazoles, a New Class of Antimitotic Agents Active against Multiple Malignant Cell Types” (Journal of Medicinal Chemistry, 2020).

Columns and labels:
Type in all cases: cell-based
HeLa cells [1] = assay: ROS production (H2-DCFDA); settings: 48 h, 0.5 μM
Protocol: One consequence of mitochondrial depolarization caused by the release of cytochrome c into the cytoplasm is the increase in reactive oxygen species (ROS).[65] Therefore, we wanted to evaluate whether ROS production increased following treatment with compound 66. To do this, we used the fluorescent probe 2,7-dichlorodihydrofluorescein diacetate (H2-DCFDA), which is oxidized to the fluorescent compound dichlorofluorescein (DCF) upon ROS production.
The production of ROS was measured by flow cytometry using H2DCFDA (Molecular Probes), as previously described.[59] Briefly, after different times of treatment, cells were collected by centrifugation and resuspended in PBS containing H2DCFDA at the concentration of 0.1 μM. The cells were then incubated for 30 min at 37 °C, centrifuged, and resuspended in PBS. The fluorescence was directly recorded with the flow cytometer, using as excitation wavelength 488 nm and emission at 530 nm.

phosphorylated cdc2 = assay: Western blot, G2/M checkpoint proteins; settings: HeLa, after both 24 and 48 h
Protocol: (§1) Figure 6 Effects of 66 on G2/M checkpoint proteins. HeLa cells were treated with 0.1 or 0.5 μM compound 66 for 24 or 48 h. The cells were harvested and lysed for the detection of cdc25c, p-cdc2^Y15, and cyclin B expression by Western blot analysis. To confirm equal protein loading, each membrane was stripped and reprobed with anti-GAPDH antibody. The relative expression of proteins was analyzed by scanning densitometry using ImageJ software and reported as a ratio protein/GAPDH.
(§2) HeLa cells were incubated in the presence of the test compound and, after different times, were collected, centrifuged, and washed two times with ice cold PBS. The pellet was resuspended in lysis buffer. After the cells were lysed on ice for 30 min, lysates were centrifuged at 15 000g at 4 °C for 10 min. The protein concentration in the supernatant was determined using the BCA protein assay reagents (Pierce, Italy). Equal amounts of protein (10 μg) were resolved using sodium dodecyl sulfate–polyacrylamide gel electrophoresis (Criterion Precast, BioRad, Italy) and transferred to a PVDF Hybond-P membrane (GE Healthcare). Membranes were blocked with a bovine serum albumin solution (5% in Tween PBS 1×), and the membranes were gently rotated overnight at 4 °C in the albumin solution. Membranes were then incubated with primary antibodies against PARP cleaved fragment, cdc25c, cyclin B, p-cdc2^Tyr15, XIAP, and Mcl-1 (all from Cell Signaling) or GAPDH (Sigma-Aldrich) for 2 h at room temperature. Membranes were next incubated with peroxidase labeled secondary antibodies for 1 h. All membranes were visualized using ECL Select (GE Healthcare), and images were acquired using an Uvitec-Alliance imaging system (Uvitec, Cambridge, U.K.). To ensure equal protein loading, each membrane was stripped and reprobed with anti-GAPDH antibody. To obtain relative quantitative data, ImageJ software (NIH, USA) was used for scanning densitometry analysis of Western blots.

cdc25c = assay: Western blot, G2/M checkpoint proteins; settings: HeLa, 0.5 μM
Protocol: as §1, §2

cyclin B1 = assay: Western blot, G2/M checkpoint proteins; settings: HeLa, 24 h, 0.5 μM
Protocol: as §1, §2

HeLa cells [2] = assay: Mitochondrial membrane potential (JC-1); settings: 0.1 and 0.5 μM, 24 or 48 h
Protocol: The mitochondrial membrane potential was measured with the lipophilic cationic dye 5,5′,6,6′ tetrachlo-1,1′,3,3′-tetraethylbenzimidazolcarbocyanine (JC-1) (Molecular Probes), as described.[73] The method is based on the ability of this fluorescent probe to enter selectively into mitochondria since it changes reversibly its color from green to red as membrane potential increases. This property is due to the reversible formation of JC-1 aggregates upon membrane polarization that causes a shift in the emitted light from 530 nm (i.e., emission of JC-1 monomeric form) to 590 nm (emission of JC-1-aggregate) when excited at 490 nm.

HeLa cells [3] = assay: Annexin-V/PI apoptosis assay
Protocol: To analyze the mode of cell death induced by compound 66 in HeLa cells, we utilized a double labeling assay of the cells with annexin-V and PI. This procedure, through a flow cytometric analysis, distinguishes four different cell populations: live cells (annexin-V^–/PI^–), early apoptotic cells (annexin-V^+/PI^–), late apoptotic cells (annexin-V^+/PI^+), and necrotic cells (annexin-V^–/PI^+).
Cell death was determined by flow cytometry of cells double stained with annexin V/FITC and PI. The Coulter Cytomics FC500 (Beckman Coulter) was used to measure the surface exposure of phosphatidylserine on apoptotic cells according to the manufacturer’s instructions (Annexin-V Fluos, Roche Diagnostics).

Mcl-1 = assay: Western blot, apoptosis proteins; settings: HeLa, 0.1 or 0.5 μM, 24 or 48 h
Protocol: (§3) To study in greater detail the apoptotic process induced by 66, we evaluated the expression of the cleaved fragment of poly(ADP)ribose polymerase (PARP), a common marker of apoptosis,[66] by Western blot analysis. HeLa cells were treated with compound 66 at 0.1 or 0.5 μM for 24 or 48 h. The cleavage fragment of PARP appeared at 24 h after beginning treatment with only 0.1 μM 66. The expression of two antiapoptotic proteins, Mcl-1 and XIAP, was also studied. Mcl-1, a member of the Bcl-2 family, is highly expressed in many types of tumors and takes part in the apoptotic response to multiple stimuli. […] Similarly, expression of Xiap, a member of the family of inhibitors of apoptosis proteins, was reduced (at 24 h) and diappeared (at 48 h) after HeLa cell treatment with 66 (Figure 9). The functions of this protein are to inhibit the activity of caspase-3, caspase-7, and caspase-9 through a direct interaction with these enzymes. Following this interaction, the entire apoptotic process is inhibited.[69]
as §2

PARP = assay: Western blot, apoptosis proteins; settings: HeLa, 24 h, 0.1 μM
Protocol: as §3, §2

XIAP = assay: Western blot, apoptosis proteins; settings: HeLa
Protocol: as §3, §2

UACC-257 = assay: NCI-60 screen; settings: Homo sapiens, Melanoma
Method in brief: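 One-concentration screen (10^–5 M) across the complete panel of sixty human cancer cell lines from nine tissue origins.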

| Structure (SMILES) | ROS production (HeLa cells [1]) | expression of phosphorylated cdc2 (phosphorylated cdc2) | total cdc25c expression (cdc25c) | cyclin B1 expression (cyclin B1) | percentage of cells with low Δψmt (HeLa cells [2]) | apoptotic cells (HeLa cells [3]; 24 h, 0.5 μM) | necrotic cells (HeLa cells [3]; 48 h) | Mcl-1 levels (Mcl-1) | cleavage fragment of PARP (PARP) | expression of Xiap (XIAP; 24 h) | expression of Xiap (XIAP; 48 h) | GI50 (UACC-257) |
| --- | --- | --- | --- | --- | --- | --- | --- | --- | --- | --- | --- | --- |
| CCOC(=O)c1cc2c(n1Cc1cc(OC)cc(OC)c1)-c1oncc1CCC2 [Compound 66, Ethyl 9-(3,5-Dimethoxybenzyl)-4,5,6,9-tetrahydropyrrolo[2′,3′:3,4]cyclohepta[1,2-d][1,2]oxazole-8-carboxylate] | induced the production of ROS | strongly decreased | strongly reduced | substantial increase | significant increase | significant increase | substantial increase | reduction | appeared | reduced | diappeared |  |
| CCOC(=O)c1cc2c(n1Cc1cccc(OC)c1)-c1oncc1CCC2 [Compound 63, Ethyl 9-(3-Methoxybenzyl)-4,5,6,9-tetrahydropyrrolo[2′,3′:3,4]cyclohepta[1,2-d][1,2]oxazole-8-carboxylate] |  |  |  |  |  |  |  |  |  |  |  | 7.61 µM |
